The values that follow come from patent US4684644A, “Basic monocarboxyamide derivatives of actagardine having antibiotic activity and compositions thereof” (Gruppo Lepetit S.p.A., priority 1985, dated 1987).

For orientation: MIC means the lowest concentration that inhibits growth of the organism. Broadly, the ED50 is the dose at which the effect has come halfway, by size or by number of responders. The low end stands for an effect at a small dose, the high end for a need for a large dose.

Where two headings read alike, the source gives them in different places.

One data set relates to S. aureus TOUR. Kind of data set: In vitro antibacterial activity (MIC), S. aureus TOUR. Format: cell-based. The method, then:
Minimal inhibitory concentration (MIC) are determined by the twofold serial dilution method in Brain heart infusion broth (Difco); it is supplemented with 2% bovine serum when streptococci are tested. […] The MIC is defined as the lowest concentration which prevents visible growth after overnight incubation at 37° C. The influence of serum is determined on S. aureus Tour by adding 30% bovine serum to the medium. […] The antimicrobial activities of the compounds of the invention in comparison with reference compound (actagardine) are reported in the following Table IV:
^(2) In the presence of 30% bovine serum

The subject of the next data set is S. pneumoniae UC 41. The data set can be described thus: In vitro antibacterial activity (MIC), S. pneumoniae UC 41. The class given is cell-based. The conditions noted are these: 2% bovine serum, ~10^3 CFU/ml. As to the method:
(§1) Minimal inhibitory concentration (MIC) are determined by the twofold serial dilution method in Brain heart infusion broth (Difco); it is supplemented with 2% bovine serum when streptococci are tested. The inoculum size is about 10^3 colony units per ml (CFU/ml). The MIC is defined as the lowest concentration which prevents visible growth after overnight incubation at 37° C. The influence of serum is determined on S. aureus Tour by adding 30% bovine serum to the medium. […] The antimicrobial activities of the compounds of the invention in comparison with reference compound (actagardine) are reported in the following Table IV: […]

A further data set has as its system S. salivarius L 1323. The data set can be described thus: In vitro antibacterial activity (MIC), S. salivarius L 1323. Format: cell-based. The following applies: S. salivarius L 1323, clinical isolate; 2% bovine serum. The method, then:
(§2) Minimal inhibitory concentration (MIC) are determined by the twofold serial dilution method in Brain heart infusion broth (Difco); it is supplemented with 2% bovine serum when streptococci are tested. The inoculum size is about 10^3 colony units per ml (CFU/ml). The MIC is defined as the lowest concentration which prevents visible growth after overnight incubation at 37° C. The influence of serum is determined on S. aureus Tour by adding 30% bovine serum to the medium. […] The antimicrobial activities of the compounds of the invention in comparison with reference compound (actagardine) are reported in the following Table IV:
(§3) ^(3) Clinical isolates.

The test system of another data set is S. bovis D L 1325. Kind of data set: In vitro antibacterial activity (MIC), S. bovis D L 1325. Format: cell-based. The conditions noted are these: S. bovis D L 1325, clinical isolate; 2% bovine serum. As to the method: as §2, §3
For data set [1], the system named is S. pyogenes C 203. Kind of data set: In vivo test in mice experimentally infected with S. pyogenes C 203. The following applies: mice infected i.p. with S. pyogenes C 203; s.c. once a day for three days; survival on 10th day. As to the method: (§4) The antimicrobial activity of the compounds of the invention is also confirmed in in vivo test in mices experimentally infected with S. pyogenes or S. pneumoniae. The experiments are conducted essentially as described by R. Pallanza et al., J. Antimicrob. Chemother. 11, 419 (1983).
(§5) The experimental infection was induced in mice by intraperitoneally administering a suspension of the test pathogens. Inocula had been adjusted so that the untreated animals died of septicemia within 48 h. Animals were treated subcutaneously with the test compound once a day for three days starting about 30 min after infection.
(§6) The ED50 value was calculated on the 10th day by the method of Spearman and Karber (D. J. Finney "Statistical Method in Biological Assay", Griffin, page 524, 1952) on the basis of the percentage of survival at each dose.

Data set [2] deals with S. pyogenes C 203. The data set can be described thus: In vitro antibacterial activity (MIC), S. pyogenes C 203. The class given is cell-based. The conditions noted are these: 2% bovine serum, ~10^3 CFU/ml. The method, then: as §1
The next data set has as its system S. faecalis D L 1321. The data set can be described thus: In vitro antibacterial activity (MIC), S. faecalis D L 1321. The class given is cell-based. The conditions noted are these: S. faecalis D L 1321, clinical isolate; 2% bovine serum. The method, then: as §2, §3
Another data set relates to S. mitis L 1320. Kind of data set: In vitro antibacterial activity (MIC), S. mitis L 1320. The conditions noted are these: S. mitis L 1320, clinical isolate; 2% bovine serum. The class given is cell-based. As to the method: as §2, §3
The test system of the next data set is S. sanguis H L 1324. The data set can be described thus: In vitro antibacterial activity (MIC), S. sanguis H L 1324. The following applies: S. sanguis H L 1324, clinical isolate; 2% bovine serum. Format: cell-based. As to the method:
as §2, §3

The nature of the next data set: Solubility in water. The conditions noted are these: for Solubility in water, pH 4.0 / Solubility in water, pH 7.3: approximate values.
Data set [3] in a line: Acid-base titration in MCS:H2O (pK of basic functions). The class given is physicochemical. The following applies: MCS:H2O 4:1 (v/v). The method, then:
^(2) Acid-base titrations were carried out in both aqueous
[methylcellosolve (MCS): water 4:1 (v/v)] and nonaqueous [pyridine or
acetic acid] solvents. The pKMCS values (pK2) of the additional
basic functions were determined in MCS:H2 O 4:1 (v/v) solution by
titration of the compounds with 0.01 N Na OH. The presence of the free
amino group of actagardine (pKMCS 6.3) in the derivatives, except
compound XIII, was confirmed by titration with 0.01 N HCl. Compound XIII
equivalent weights (E W) were obtained by titration with either
hydroxytetrabutylamine (HTBA) in pyridine or perchloric acid (HClO4)
actagardine (pKMCS 6.3) unmodified. Titration in MCS:H2 O 4:1

The test system of another data set is S. pneumoniae UC41. The data set can be described thus: In vivo test in mice experimentally infected with S. pneumoniae UC41. The conditions noted are these: mice infected i.p. with S. pneumoniae UC41; s.c. once a day for three days; survival on 10th day. The method, then:
as §4, §5, §6

Data set [4] is described as follows: Partition coefficient (log P) between n-octanol and water. Format: physicochemical. The method, then:
^(3) Partition coefficients (log P) were determined between noctanol
and water. The concentration of the compounds in each phase was determine
spectrophotometrically (UV).
^(6) 0.1 M acetate buffer pH 3.0.
is log P between noctanol and 0.1 M phosphate buffer pH 7.3.

In another data set the test system is S. viridans L 1322. The data set can be described thus: In vitro antibacterial activity (MIC), S. viridans L 1322. The following applies: S. viridans L 1322, clinical isolate; 2% bovine serum. The class given is cell-based. The method, then:
as §2, §3

In data set [5] the test system is S. pyogenes C 203. Kind of data set: Bactericidal activity against growing cells of S. pyogenes C 203. The class given is cell-based. The following applies: 10 times the MIC, Todd-Hewitt broth, 37° C. As to the method:
The antibacterial activity of compound III (a and b) was compared with that of actagardine against growing cells of S. pyogenes C 203. […] For compound III, this level of killing action was obtained also at a dose equal to the MIC (0.4 ug/ml). This comparison was carried out on Todd-Hewitt broth(s) containing compound III and actagardine at concentrations equal to or multiple of the MIC which were inoculated with growing cells of S. pyogenes C 203 (~10^6 CFU/ml). The cultures were incubated at 37° C. with shaking and viable cells were counted at intervals.

The subject of a further data set is gram-positive organisms. The conditions noted are these: in vitro and in vivo; cited from earlier work.
The mark [6] stands for this setting: n-octanol/0.1 M acetate buffer pH 3.0.
Where [7] appears, read: in the presence of 30% bovine serum.

As to “N-ethyl actagardine 3,3-dimethylamino-1-propylamide monocarboxamide [Compound XIII]”, the MIC against S. aureus TOUR (inoculum 10^3 CFU/ml) turned out to be 50 µg/mL; with S. pneumoniae UC 41, 12.5 µg/mL; against S. salivarius L 1323 it was 0.8 µg/mL; with S. bovis D L 1325, 25 µg/mL; in the data set on S. pyogenes C 203 [2] it was 0.8 µg/mL; against S. faecalis D L 1321, 100 µg/mL. For the same substance, the figures for the MIC in the data set with S. mitis L 1320 and with S. sanguis H L 1324 were 3.1 µg/mL and 50 µg/mL, respectively. In addition, the ED50 in the data set on S. pyogenes C 203 [1] worked out at 0.23 mg/kg.

As for “actagardine 3,3-dimethylamino-1-propylamide monocarboxamide, hydrochloride [IIIb]”, the “Solubility in water, pH 4.0” value in “Solubility in water” is listed as 600 mg/ml. In addition, the “Solubility in water, pH 7.3” value in the data set “Solubility in water” is 200 mg/ml. In [3] (pKMCS of additional basic function, titration with 0.01 N NaOH), the “pk2 (MCS/H2O)” value is on record as 9.2. Further, the ED50 in the data set with S. pneumoniae UC41 amounted to 3.5 mg/kg; with S. pyogenes C 203 [1], 0.47 mg/kg. Besides, the “Partition Coeff. (log P), CH3(CH2)7OH/H2O, pH 3” value (shortened to “Partition Coeff. (log P) … pH 3”) in data set [4] (setting [6]) is -1.644.

Turning to “actagardine N-(2-aminoethyl)-1,2-ethanediamine monocarboxamide [IV]”, the “Solubility in water, pH 4.0” value came out at 100 mg/ml. In the data set on S. aureus TOUR (setting [7]), the MIC turned out to be 12.5 µg/mL. In addition, the MIC with S. aureus TOUR (inoculum 10^3 CFU/ml) worked out at 50 µg/mL. Besides, the MIC against S. aureus TOUR (inoculum 10^6 CFU/ml) was 50 µg/mL. The MIC against S. pneumoniae UC 41 was determined as 12.5 µg/mL. Also, the minimal inhibitory concentration (MIC) against S. salivarius L 1323 was 0.8 µg/mL. The MIC in the data set on S. bovis D L 1325 is 25 µg/mL. Also, in the data set with S. pyogenes C 203 [1], the ED50 came to 0.62 mg/kg. Moreover, in the data set on S. pyogenes C 203 [2], the minimum inhibitory concentration (MIC) worked out at 0.8 µg/mL. In the data set on S. viridans L 1322, the MIC worked out at 25 µg/mL. Moreover, the MIC against S. faecalis D L 1321 turned out to be 100 µg/mL. The same substance returned an MIC in the data set on S. mitis L 1320 of 3.1 µg/mL. Moreover, the “Partition Coeff. (log P) … pH 3” value in data set [4] (0.1 m acetate buffer, pH 3) is -1.353. The “Partition Coeff. (log P), CH3(CH2)7OH/H2O, H2O” value in data set [4] (distilled water) is given as -0.680. The MIC against S. sanguis H L 1324 worked out at 50 µg/mL.

For the substance actagardine [reference compound], the “solubility in water (in words)” value in the data set “Solubility in water” (acid form) is recorded as “not soluble in water”. In the data set “Solubility in water”, the “Solubility in water, pH 4.0” value was below 10 mg/ml. In addition, the “Solubility in water, pH 7.3” value in the data set “Solubility in water” came to 70 mg/ml. Also, the figures for the killing effect in the data set with S. pyogenes C 203 [5] (24 h) and with S. pyogenes C 203 [5] (after 5 h of incubation) were 99.9% and 99%, respectively. The MIC amounted to 25 µg/mL with S. aureus TOUR (setting [7]); 25 µg/mL in the data set on S. aureus TOUR (inoculum 10^3 CFU/ml); 50 µg/mL against S. aureus TOUR (inoculum 10^6 CFU/ml); 25 µg/mL against S. pneumoniae UC 41; 3.1 µg/mL in the data set with S. salivarius L 1323; 100 µg/mL with S. bovis D L 1325. The MIC against S. pyogenes C 203 [2] came to 1.6 µg/mL; in the data set with S. viridans L 1322, 100 µg/mL; against S. faecalis D L 1321, 100 µg/mL; against S. mitis L 1320 it was 12.5 µg/mL; with S. sanguis H L 1324, 100 µg/mL. Besides, the “pKMCS of the free amino group of actagardine” value in [3] (titration with 0.01 N HCl) is recorded as 6.3. In the data set with S. pyogenes C 203 [1], this substance showed an ED50 of 0.81 mg/kg. Also, in the data set on gram-positive organisms, the “antimicrobial activity (in words)” value is “antimicrobial in vitro and in vivo activity against gram-positive organisms”. In addition, the “Partition Coeff. (log P) … pH 3” value in data set [4] (setting [6]) was 0.357. The “log P between n-octanol and 0.1 M phosphate buffer pH 7.3” value in data set [4] (n-octanol/0.1 M phosphate buffer pH 7.3) was -0.545.
